Reference: ChEMBL document CHEMBL1201862, “PubChem BioAssay data set” (2004)
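Step 1: Grow cells in 96-well plates. Step 2: Expose to compound for 48 hours at 5 concentrations. Step 3: Interpolate endpoints linearly; if unreached, use highest concentration. GI50: concentration for 50% inhibition of growth.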 Activity calls are given as the source filed them. No stated cut-off is given here; in the data, active = GI50 up to about 1.1 µM and inactive = higher.

How the values were obtained:
Experiment in all cases: inhibition of tumour cell growth, NCI panel, 48 h
[1] = tested on: MOLT-4
[2] = tested on: NCI-H23
[3] = tested on: MDA-MB-435
[4] = tested on: OVCAR-4
[5] = tested on: OVCAR-8
[6] = tested on: SK-MEL-5
[7] = tested on: CAKI-1
[8] = tested on: HOP-62
[9] = tested on: HL-60
[10] = tested on: LOX IMVI
[11] = tested on: A498
[12] = tested on: SR
[13] = tested on: TK-10
[14] = tested on: U-251
[15] = tested on: NCI/ADR-RES
[16] = tested on: SF-268
[17] = tested on: SF-295
[18] = tested on: SN12C
[19] = tested on: CCRF-CEM
[20] = tested on: HOP-92

Measured: GI50

Cc1cc(S(=O)(=O)n2ccnc2Oc2cccc(Cl)c2)c(SSc2cc(Cl)c(C)cc2S(=O)(=O)n2ccnc2Oc2cccc(Cl)c2)cc1Cl
inactive: [1] 4.14 µM | [2] 6.32 µM | [3] 5.65 µM | [4] 9.57 µM | [5] 6.59 µM | [6] 3.42 µM | [7] 10.9 µM | [8] 9.57 µM | [9] 4.18 µM | [10] 30 µM | [11] 12.2 µM | [12] 9.06 µM | [13] 29 µM | [14] 3.18 µM | [15] 3.1 µM | [16] 7.43 µM | [17] 4.19 µM | [18] 8.87 µM | [19] 2.81 µM | [20] 4.39 µM

COC(OC)C1(c2ccccc2)Oc2ccccc2C1=O (stereo not given)
inactive: [1] 68.7 µM | [2] 50.1 µM | [3] > 100 µM | [4] > 100 µM | [5] > 100 µM | [6] 65.6 µM | [7] > 100 µM | [8] > 100 µM | [9] > 100 µM | [10] > 100 µM | [11] > 100 µM | [12] > 100 µM | [13] > 100 µM | [14] > 100 µM | [15] 80.7 µM | [16] > 100 µM | [17] 90.2 µM | [18] > 100 µM | [19] > 100 µM | [20] > 100 µM

CCCCOC(=O)Nc1ccc(S(=O)(=O)Nc2ccccc2Cl)cc1
inactive: [1] 12.6 µM | [2] 25.6 µM | [3] 18.8 µM | [4] 12.4 µM | [5] 21.3 µM | [6] 12 µM | [7] 19.5 µM | [8] 21.7 µM | [9] 16.9 µM | [10] 18.1 µM | [11] 12.8 µM | [12] 4.04 µM | [13] 21.6 µM | [14] 17.5 µM | [15] 18.2 µM | [16] 16.9 µM | [17] 17.3 µM | [18] 21.2 µM | [19] 19.2 µM | [20] 13.7 µM

Cc1csc(-n2c(C)nc3cc(Cl)ccc3c2=O)n1
inactive: [1] 46.7 µM | [2] 71.8 µM | [3] > 100 µM | [4] 45.4 µM | [5] > 100 µM | [6] 43.1 µM | [7] > 100 µM | [8] > 100 µM | [9] > 100 µM | [10] 96.2 µM | [11] > 100 µM | [12] > 100 µM | [13] > 100 µM | [14] > 100 µM | [15] 86.3 µM | [16] 42.8 µM | [17] > 100 µM | [18] > 100 µM | [19] 74.8 µM | [20] 10.4 µM

O=C(O)C(Cl)(c1ccccc1)c1ccccc1
inactive: [1] > 100 µM | [2] > 100 µM | [3] > 100 µM | [4] > 100 µM | [5] > 100 µM | [6] > 100 µM | [7] > 100 µM | [8] > 100 µM | [9] > 100 µM | [10] > 100 µM | [11] > 100 µM | [12] > 100 µM | [13] > 100 µM | [14] > 100 µM | [15] > 100 µM | [16] > 100 µM | [17] > 100 µM | [18] > 100 µM | [19] > 100 µM | [20] > 100 µM

COc1c(C)c2c(c(=O)c3c(C)cccc3n2C)c2c1c(=O)c1c(C)cccc1n2C
inactive: [1] > 10 µM | [2] > 10 µM | [3] > 10 µM | [4] > 10 µM | [5] 9.66 µM | [6] > 10 µM | [7] > 10 µM | [8] > 10 µM | [9] > 10 µM | [10] > 10 µM | [11] > 10 µM | [12] > 10 µM | [13] > 10 µM | [14] > 10 µM | [15] 9.18 µM | [16] > 10 µM | [17] > 10 µM | [18] > 10 µM | [19] > 10 µM | [20] > 10 µM

COc1cc(O)c(C(=O)/C=C/c2ccc(O)cc2)cc1Oc1ccc(C(=O)/C=C/c2ccc(O)cc2)c(O)c1 [RHUSCHALCONE IV]
inactive: [1] 3.13 µM | [2] 2.67 µM | [3] 3.4 µM | [4] 2.22 µM | [5] 2.59 µM | [6] 1.92 µM | [7] 3.5 µM | [8] 4.47 µM | [9] 3.65 µM | [10] 3.4 µM | [11] 2.05 µM | [12] 2.38 µM | [13] 3.42 µM | [14] 1.93 µM | [15] 2.91 µM | [16] 2.96 µM | [17] 3.76 µM | [18] 2.45 µM | [19] 2.66 µM | [20] 4.36 µM

CCCCc1cc2c(C)cc(=O)oc2c(O)c1O
inactive: [1] 25.2 µM | [2] 34.9 µM | [3] 30.6 µM | [4] 32.1 µM | [5] 31.6 µM | [6] 20.7 µM | [7] 23.4 µM | [8] 23.3 µM | [9] 18.1 µM | [10] 20.5 µM | [11] 26.5 µM | [12] 18 µM | [13] 85.9 µM | [14] 23.7 µM | [15] 22.6 µM | [16] 38.8 µM | [17] 22.2 µM | [18] 32.4 µM | [19] 21.3 µM | [20] 19.4 µM

COC(=O)[C@H](CC(C)C)NC1=C(Cl)C(=O)c2c(O)ccc(O)c2C1=O
inactive: [1] 3.52 µM | [2] 6.53 µM | [3] 8.89 µM | [4] > 10 µM | [5] > 10 µM | [6] > 10 µM | [7] > 10 µM | [8] > 10 µM | [9] 8.02 µM | [10] 1.8 µM | [11] > 10 µM | [12] > 10 µM | [13] > 10 µM | [14] > 10 µM | [15] > 10 µM | [16] > 10 µM | [17] > 10 µM | [18] > 10 µM | [19] 4.31 µM | [20] > 10 µM

O=c1c2ccccc2nc(-c2ccccc2)n1/N=C/c1ccccc1[N+](=O)[O-]
inactive: [1] > 100 µM | [2] 15.3 µM | [3] > 100 µM | [4] > 91.2 µM | [5] > 46.2 µM | [6] > 75.2 µM | [7] > 100 µM | [8] 13.6 µM | [9] > 100 µM | [10] > 100 µM | [11] > 75.2 µM | [12] > 100 µM | [13] 28.3 µM | [14] 16.1 µM | [15] 16.7 µM | [16] 16.3 µM | [17] 22.8 µM | [18] > 74.8 µM | [19] > 100 µM | [20] 29.2 µM
